Measurements published in patent US20130184302A1, “METHODS FOR TREATING IRRITABLE BOWEL SYNDROME (IBS) AND INFECTIONS” (priority 2011, published 2013).

How the values were obtained:
Format in all cases: in vivo, human
[1] = system: subjects with d-IBS; experiment: Adequate relief of IBS symptoms and bloating (weekly yes/no questions), rifaximin BID study in d-IBS; details: for Percentage of Subjects with Number of Weeks with Adequate Relief of Bloating Symptoms / Percentage of Subjects with Number of Weeks with Adequate Relief of IBS Symptoms: ITT; for Adequate Relief of Bloating: Success / Adequate Relief of IBS symptoms: Success: end of the Treatment Phase; for Percentage of Subjects with Adequate Relief of Bloating Symptom / Percentage of Subjects with Adequate Relief of IBS Symptoms: RFX 550 mg BID 14 days, ITT N = 191; for Percentage of Subjects with Adequate Relief of Bloating Symptom: at least two of the final three weeks of treatment phase; for Percentage of Subjects with Adequate Relief of IBS Symptoms: at least two of the final three weeks of treatment phase (Weeks 1 to 4); for Adequate Relief of Bloating, Post Treatment: Failures / Adequate Relief of Bloating, Post Treatment: Success / Adequate Relief of Bloating, Post Treatment: Failure: RFX 550 2w (N = 54); for Patients with adequate relief of bloating / Patients with adequate relief of global IBS symptoms: rifaximin 550 mg twice daily 14 days
Experimental: This example relates to a study of rifaximin in subjects with d-IBS. […] There were two measures of efficacy assessed. Subjects were questioned on the relief of overall IBS symptoms and bloating. […] The analyses defined success as a “yes” response to questions regarding adequate relief.
All subpopulations in the study responded to therapy. Baseline severity was determined using 7-point Lickert scales during screening for Abdominal Pain/Discomfort and Bloating, and the number, type (normal, hard, loose) and urgency of bowel movements.
Duration of effect was assessed in a follow-up period. Subjects that responded in the 4 week treatment period were followed for an additional 3 months.
The effect of treatment on the percentage of subjects who reported adequate relief of IBS and bloating symptoms for at least two of the final three weeks during the treatment phase (Weeks 1 to 4) is shown in Tables 5-7 and FIGS. 4-6 below.
The study assessed the effect over 12 weeks of follow-up on long-term adequate relief. Subjects who had adequate relief by Week 4 and remained symptom-free at Week 5 were followed during the post-treatment phase and shown in FIGS. 1 and 2. Superiority to placebo was maintained during the 12 weeks post-treatment follow-up. Results for IBS symptoms were RFX 550 mg BID 62.3% versus placebo 49.2%, and RFX 550 mg BID 59.3% versus 50.9% for placebo for the symptom of bloating through week 16. In assessing the follow-up data, there was statistical significance (p<0.05) of bloating and IBS symptoms for RFX 550 mg BID versus placebo.
Two measures of efficacy were assessed independently. The first was the proportion of subjects who provided a ‘yes’ response to the weekly SGA question: “In the past 7 days, have you had adequate relief of your IBS symptoms? (yes/no)”. The second endpoint was the proportion of subjects who provide a ‘yes’ response to the weekly individual symptom question: “In the past 7 days, have you had adequate relief of your symptom of bloating? (yes/no)”. Durability was based on the proportion of subjects that had adequate relief over the entire treatment phase.
It is reported herein that the severity of baseline symptoms of abdominal pain and bloating influenced the response to rifaximin treatment. The co-primary endpoints in this analysis assessed weekly yes/no responses to questions regarding adequate relief of global IBS symptoms and IBS-associated bloating. Severity of baseline IBS symptoms was evaluated as a potential confounder of clinical response and was categorized as mild/moderate or severe based on a mean score of ≦4 vs. >4 (on a 7-point scale) for bloating and abdominal pain.
The Weekly yes/no responses to questions regarding adequate relief of global IBS symptoms and IBS-associated bloating were assessed. Clinical response was defined as adequate relief for 2 of the final 3 treatment weeks (wk 2, 3, or 4). Severity of baseline IBS symptoms was evaluated as a potential confounder of clinical response and was categorized as mild/moderate or severe based on a mean score of ≦4 versus >4 (on a 7-point scale (0=not bothersome; 6=very bothersome)) for bloating and abdominal pain.

[2] = system: patients with non-constipation IBS (non-C IBS); experiment: Stool frequency, rifaximin 550 mg TID study
[3] = system: subjects with d-IBS; experiment: Adequate relief of IBS symptoms and bloating (weekly yes/no questions), rifaximin BID study in d-IBS; details: aIBS
[4] = patients with mild/moderate abdominal pain at baseline
[5] = patients with mild/moderate bloating at baseline

CO[C@H]1/C=C/O[C@@]2(C)Oc3c(C)c(O)c4c(O)c(c5c(nc6cc(C)ccn65)c4c3C2=O)NC(=O)/C(C)=C\C=C\[C@H](C)[C@H](O)[C@@H](C)[C@@H](O)[C@@H](C)[C@H](OC(C)=O)[C@@H]1C [Rifaximin, (2S,16Z,18E,20S,21S,22R, 23R,24R,25S,26S,27S,28E)-5,6,21,23,25 Pentahydroxy-27-methoxy-2,4,11,16,20,22,24,26-octamethyl-2,7-(epoxypentadeca-(1,11,13)trienimino) benzofuro (4,5-e) pyrido(1,2,-a) benzimidazole-1,15(2H)-dione,25-acetate]
Percentage of Subjects with Number of Weeks with Adequate Relief of Bloating Symptoms ([1]; 0 weeks, RFX 550 mg BID): 35%
Percentage of Subjects with Number of Weeks with Adequate Relief of IBS Symptoms ([1]; 0 weeks, RFX 550 mg BID): 33%
Percentage of Subjects with Number of Weeks with Adequate Relief of Bloating Symptoms ([1]; 1 week, RFX 550 mg BID): 14%
Percentage of Subjects with Number of Weeks with Adequate Relief of IBS Symptoms ([1]; 1 week, RFX 550 mg BID): 11%
Percentage of Subjects with Number of Weeks with Adequate Relief of Bloating Symptoms ([1]; 2 weeks, RFX 550 mg BID): 15%
Percentage of Subjects with Number of Weeks with Adequate Relief of IBS Symptoms ([1]; 2 weeks, RFX 550 mg BID): 15%
Percentage of Subjects with Number of Weeks with Adequate Relief of Bloating Symptoms ([1]; 3 weeks, RFX 550 mg BID): 20%
Percentage of Subjects with Number of Weeks with Adequate Relief of IBS Symptoms ([1]; 3 weeks, RFX 550 mg BID): 23%
Percentage of Subjects with Number of Weeks with Adequate Relief of Bloating Symptoms ([1]; 4 weeks, RFX 550 mg BID): 14%
Percentage of Subjects with Number of Weeks with Adequate Relief of IBS Symptoms ([1]; 4 weeks, RFX 550 mg BID): 16%
Treatment effect, Bloating ([1]; Age <65): 6.8%
Treatment effect, IBS Sx ([1]; Age <65): 6.9%
Treatment effect, Bloating ([1]; Age ≧65): 3.2%
Treatment effect, IBS Sx ([1]; Age ≧65): 19.1%
Treatment effect, Bloating ([1]; Diabetes History N): 7.4%
Treatment effect, IBS Sx ([1]; Diabetes History N): 9.5%
Treatment effect, Bloating ([1]; Diabetes History Y): −5.6%
Treatment effect, IBS Sx ([1]; Diabetes History Y): −12.7%
Treatment effect, Bloating ([1]; Disease Duration 10-20 y): 11.7%
Treatment effect, IBS Sx ([1]; Disease Duration 10-20 y): 20.1%
Treatment effect, Bloating ([1]; Disease Duration >20 y): 35.1%
Treatment effect, IBS Sx ([1]; Disease Duration >20 y): 46.6%
Treatment effect, Bloating ([1]; Disease Duration ≦10 y): 2.8%
Treatment effect, IBS Sx ([1]; Disease Duration ≦10 y): 1.8%
Adequate Relief of Bloating: Failure ([1]; Female, RFX 275 2w): 52 (64.2%)
Adequate Relief of IBS symptoms: Failure ([1]; Female, RFX 275 2w): 46 (56.8%)
Adequate Relief of Bloating: Success ([1]; Female, RFX 275 2w): 29 (35.8%)
Adequate Relief of IBS symptoms: Success ([1]; Female, RFX 275 2w): 35 (43.2%)
Adequate Relief of Bloating: Failure ([1]; Female, RFX 550 2w): 74 (54.0%)
Adequate Relief of IBS symptoms: Failure ([1]; Female, RFX 550 2w): 66 (48.2%)
Adequate Relief of Bloating: Success ([1]; Female, RFX 550 2w): 63 (46.0%)
Adequate Relief of IBS symptoms: Success ([1]; Female, RFX 550 2w): 71 (51.8%)
Adequate Relief of Bloating: Failure ([1]; Female, RFX 550 4w): 44 (57.9%)
Adequate Relief of IBS symptoms: Failure ([1]; Female, RFX 550 4w): 42 (55.3%)
Adequate Relief of Bloating: Success ([1]; Female, RFX 550 4w): 32 (42.1%)
Adequate Relief of IBS symptoms: Success ([1]; Female, RFX 550 4w): 34 (44.7%)
Adequate Relief of Bloating: Failure ([1]; Female, RFX 1100 2w): 45 (61.6%)
Adequate Relief of IBS symptoms: Failure ([1]; Female, RFX 1100 2w): 44 (60.3%)
Adequate Relief of Bloating: Success ([1]; Female, RFX 1100 2w): 28 (38.4%)
Adequate Relief of IBS symptoms: Success ([1]; Female, RFX 1100 2w): 29 (39.7%)
Treatment effect, Bloating ([1]; Gender F): 3.9%
Treatment effect, IBS Sx ([1]; Gender F): 3.5%
Treatment effect, Bloating ([1]; Gender M): 13.6%
Treatment effect, IBS Sx ([1]; Gender M): 21%
Adequate Relief of Bloating: Failure ([1]; Male, RFX 275 2w): 8 (57.1%)
Adequate Relief of IBS symptoms: Failure ([1]; Male, RFX 275 2w): 9 (64.3%)
Adequate Relief of Bloating: Success ([1]; Male, RFX 275 2w): 6 (42.9%)
Adequate Relief of IBS symptoms: Success ([1]; Male, RFX 275 2w): 5 (35.7%)
Adequate Relief of Bloating: Failure ([1]; Male, RFX 550 2w): 29 (53.7%)
Adequate Relief of IBS symptoms: Failure ([1]; Male, RFX 550 2w): 25 (46.3%)
Adequate Relief of Bloating: Success ([1]; Male, RFX 550 2w): 25 (46.3%)
Adequate Relief of IBS symptoms: Success ([1]; Male, RFX 550 2w): 29 (53.7%)
Adequate Relief of Bloating: Failure ([1]; Male, RFX 550 4w): 16 (72.7%)
Adequate Relief of IBS symptoms: Failure ([1]; Male, RFX 550 4w): 15 (68.2%)
Adequate Relief of Bloating: Success ([1]; Male, RFX 550 4w): 6 (27.3%)
Adequate Relief of IBS symptoms: Success ([1]; Male, RFX 550 4w): 7 (31.8%)
Adequate Relief of Bloating: Failure ([1]; Male, RFX 1100 2w): 16 (61.5%)
Adequate Relief of IBS symptoms: Failure ([1]; Male, RFX 1100 2w): 14 (53.8%)
Adequate Relief of Bloating: Success ([1]; Male, RFX 1100 2w): 10 (38.5%)
Adequate Relief of IBS symptoms: Success ([1]; Male, RFX 1100 2w): 12 (46.2%)
Percentage of Subjects with Adequate Relief of Bloating Symptom [1]: 46%
Percentage of Subjects with Adequate Relief of IBS Symptoms [1]: 52%
Percentage of Subjects with Adequate Relief of IBS Symptoms ([1]; listed as RFX): 52.4%
Percentage of Subjects with Adequate Relief of Bloating Symptom ([1]; listed as RFX): 46.1%
Adequate Relief of Bloating, Post Treatment: Failures ([1]; Week 6): (9.3%)
Adequate Relief of Bloating, Post Treatment: Success ([1]; Week 6): (90.7%)
Adequate Relief of Bloating, Post Treatment: Failures ([1]; Week 7): (16.7%)
Adequate Relief of Bloating, Post Treatment: Success ([1]; Week 7): (83.3%)
Adequate Relief of Bloating, Post Treatment: Failures ([1]; Week 8): (13.0%)
Adequate Relief of Bloating, Post Treatment: Success ([1]; Week 8): (87.0%)
Adequate Relief of Bloating, Post Treatment: Failures ([1]; Week 9): (27.8%)
Adequate Relief of Bloating, Post Treatment: Success ([1]; Week 9): (72.2%)
Adequate Relief of Bloating, Post Treatment: Failures ([1]; Week 10): (27.8%)
Adequate Relief of Bloating, Post Treatment: Success ([1]; Week 10): (72.2%)
Adequate Relief of Bloating, Post Treatment: Failures ([1]; Week 11): (35.2%)
Adequate Relief of Bloating, Post Treatment: Success ([1]; Week 11): (64.8%)
Adequate Relief of Bloating, Post Treatment: Failure ([1]; Week 12): (33.3%)
Adequate Relief of Bloating, Post Treatment: Success ([1]; Week 12): (66.7%)
Adequate Relief of Bloating, Post Treatment: Failure ([1]; Week 13): (38.9%)
Adequate Relief of Bloating, Post Treatment: Success ([1]; Week 13): (61.1%)
Adequate Relief of Bloating, Post Treatment: Failure ([1]; Week 14): (37.0%)
Adequate Relief of Bloating, Post Treatment: Success ([1]; Week 14): (63.0%)
Adequate Relief of Bloating, Post Treatment: Failure ([1]; Week 15): (42.6%)
Adequate Relief of Bloating, Post Treatment: Success ([1]; Week 15): (57.4%)
Adequate Relief of Bloating, Post Treatment: Failure ([1]; Week 16): (40.7%)
Treatment effect, IBS Sx ([1]; aIBS): 31.4%*, 31.4%
Treatment effect, Bloating ([1]; dIBS only): 4.5%
Treatment effect, IBS Sx ([1]; dIBS only): 6.3%
Patients with adequate relief of bloating [1, 4]: 44%
Patients with adequate relief of global IBS symptoms [1, 4]: 50%
Patients with adequate relief of bloating [1, 5]: 47%
Patients with adequate relief of global IBS symptoms [1, 5]: 56%
Long-term adequate relief of IBS symptoms, post-treatment follow-up ([1]; through week 16, RFX 550 mg BID, subjects with adequate relief by Week 4): 62.3%
% with decrease in SF (stool frequency) ([2]; Week 1): 14.4%
% with decrease in SF (stool frequency) ([2]; Week 2): 20.6%
% with decrease in SF (stool frequency) ([2]; Week 3): 22.2%
% with decrease in SF (stool frequency) ([2]; Week 4): 21.6%
% with decrease in SF (stool frequency) ([2]; Week 5): 25.7%
% with decrease in SF (stool frequency) ([2]; Week 6): 22.9%
% with decrease in SF (stool frequency) ([2]; Week 7): 23.8%
% with decrease in SF (stool frequency) ([2]; Week 8): 24.4%
% with decrease in SF (stool frequency) ([2]; Week 9): 25.4%
% with decrease in SF (stool frequency) ([2]; Week 10): 26.7%
% with decrease in SF (stool frequency) ([2]; Week 11): 25.4%
% with decrease in SF (stool frequency) ([2]; Week 12): 27.0%
Treatment effect, Bloating [3]: 31.4%*, 31.4%
